PubChem BioAssay AID328 (DTP/NCI, 2004)
Where “and” joins values, the source holds several entries; their conditions need not be identical. Identical values can stand only once. Toxic doses and inconclusive results are not listed.

System: BDF1 mice, P388 leukemia ip, median survival T/C
Assay: NCI In Vivo Anticancer Drug Screen. Data for tumor model P388 Leukemia (intraperitoneal) in B6D2F1 (BDF1) mice
Conditions: endpoint: median survival time, higher = longer survival
Outline: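 Reported as T/C, where T is the survival measurement in dosed animals and C the same measurement in vehicle controls.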

[1] = dose: 50.0 mg/kg/injection, schedule: Q01DX009 (ip), vehicle: saline with Tween-80
[2] = dose: 200.0 mg/kg/injection, schedule: Q01DX009 (ip), vehicle: saline with Tween-80
[3] = dose: 100.0 mg/kg/injection, schedule: Q01DX009 (ip), vehicle: saline with Tween-80
[4] = dose: 200.0 mg/kg/injection, schedule: Q04DX003 (ip), vehicle: saline with Tween-80
[5] = dose: 400.0 mg/kg/injection, schedule: Q04DX003 (ip), vehicle: saline with Tween-80
[6] = dose: 25.0 mg/kg/injection, schedule: Q04DX003 (ip), vehicle: saline
[7] = dose: 100.0 mg/kg/injection, schedule: Q04DX003 (ip), vehicle: saline with Tween-80
[8] = dose: 25.0 mg/kg/injection, schedule: Q01DX009 (ip), vehicle: water
[9] = dose: 400.0 mg/kg/injection, schedule: Q01DX009 (ip), vehicle: saline with Tween-80

N=c1ccn2c(n1)OC1C(O)C(CO)OC12 (centres undefined) was tested, and the T/C (dose: 39.0 mg/kg/injection, schedule: Q01DX008 (ip), vehicle: water) was 173 % of control, the T/C (dose: 65.0 mg/kg/injection, schedule: Q01DX008 (ip), vehicle: water) was 99 % of control and the T/C (dose: 108.0 mg/kg/injection, schedule: Q01DX008 (ip), vehicle: water) was 224 % of control. The T/C (dose: 180.0 mg/kg/injection, schedule: Q01DX008 (ip), vehicle: water) was 207 % of control, the T/C (dose: 300.0 mg/kg/injection, schedule: Q01DX008 (ip), vehicle: water) was 213 % of control and the T/C (dose: 500.0 mg/kg/injection, schedule: Q01DX008 (ip), vehicle: water) was 225 % of control.

In the case of CCCCCCCCOC(=O)c1ccc(OP(=O)(N(C)C)N(C)C)cc1, the T/C (dose: 12.5 mg/kg/injection, schedule: Q01DX009 (ip), vehicle: saline with Tween-80) is reported as 99 % of control, the T/C (dose: 25.0 mg/kg/injection, schedule: Q01DX009 (ip), vehicle: saline with Tween-80) is reported as 101 % of control and the T/C [1] is reported as 106 % of control and 124 % of control. The T/C [2] was 94 % of control.

In the case of NC/C(=N\O)c1ccc(C(F)(F)F)cc1, the T/C (dose: 50.0 mg/kg/injection, schedule: Q01DX001 (ip), vehicle: Klucel (hydroxypropylcellulose) (HPC)) is reported as 105 % of control, the T/C (dose: 100.0 mg/kg/injection, schedule: Q01DX001 (ip), vehicle: Klucel (hydroxypropylcellulose) (HPC)) is reported as 114 % of control and the T/C (dose: 200.0 mg/kg/injection, schedule: Q01DX001 (ip), vehicle: Klucel (hydroxypropylcellulose) (HPC)) is reported as 105 % of control.

With Clc1ccc2c(c1)C(Br)c1cc(Cl)cc(Cl)c1-2 (centres undefined) the T/C [3] was 108 % of control, the T/C [2] was 87 % of control and the T/C [4] was 87 % of control. The T/C [5] was 87 % of control.

Oc1cccc2cccnc12.[Cu+].[O-]c1cccc2cccnc12 was tested, and the T/C (dose: 1.87 mg/kg/injection, schedule: Q01DX009 (ip), vehicle: saline) was 104 % of control, the T/C (dose: 2.75 mg/kg/injection, schedule: Q04DX003 (ip), vehicle: saline) was 90 % of control and the T/C (dose: 3.75 mg/kg/injection, schedule: Q01DX009 (ip), vehicle: saline) was 100 % of control. For the same compound, the T/C (dose: 5.5 mg/kg/injection, schedule: Q04DX003 (ip), vehicle: saline) was 100 % of control, the T/C (dose: 11.0 mg/kg/injection, schedule: Q04DX003 (ip), vehicle: saline) was 113 % of control and the T/C (dose: 16.0 mg/kg/injection, schedule: Q04DX003 (ip), vehicle: saline) was 100 % of control. For the same compound, the T/C [6] was 100 % of control.

CCSC1(SCC)C(=O)OC2=C(CCCCC2)C1N(C)C (centres undefined) was tested, and the T/C [1] was 96 % of control, the T/C [3] was 95 % of control and the T/C [2] was 103 % of control.

CC(C)=CCC/C(C)=C/CO was tested, and the T/C (dose: 15.6 mg/kg/injection, schedule: Q01DX010 (ip), vehicle: saline) was 100 % of control, the T/C (dose: 31.3 mg/kg/injection, schedule: Q01DX010 (ip), vehicle: saline) was 100 % of control and the T/C (dose: 62.5 mg/kg/injection, schedule: Q01DX010 (ip), vehicle: saline) was 113 % of control. The T/C (dose: 125.0 mg/kg/injection, schedule: Q01DX010 (ip), vehicle: saline) was 118 % of control.

For CN1CCc2cc3c(cc2/C1=C1\OC(=O)c2c1ccc1c2OCO1)OCO3, the T/C [7] was 88 % of control, the T/C [4] was 93 % of control and the T/C [5] was 101 % of control.

With C=C1C(=O)OC2C3OC(C)(CCC(O)C3COC(C)=O)CC(OC(=O)/C(=C/C)COC(C)=O)C12 (centres undefined) the T/C (dose: 3.13 mg/kg/injection, schedule: Q01DX009 (ip), vehicle: Klucel (hydroxypropylcellulose) (HPC)) was 100 % of control, the T/C (dose: 6.25 mg/kg/injection, schedule: Q01DX009 (ip), vehicle: Klucel (hydroxypropylcellulose) (HPC)) was 112 % of control and the T/C (dose: 12.5 mg/kg/injection, schedule: Q01DX009 (ip), vehicle: Klucel (hydroxypropylcellulose) (HPC)) was 102 % of control. For the same compound, the T/C (dose: 25.0 mg/kg/injection, schedule: Q01DX009 (ip), vehicle: Klucel (hydroxypropylcellulose) (HPC)) was 121 % of control.

O=C1CCC2(CCCC2)c2ccccc21 was tested, and the T/C [8] was 95 % of control, the T/C (dose: 50.0 mg/kg/injection, schedule: Q01DX009 (ip), vehicle: water) was 97 % of control and the T/C (dose: 100.0 mg/kg/injection, schedule: Q01DX009 (ip), vehicle: water) was 106 % of control. The T/C (dose: 200.0 mg/kg/injection, schedule: Q01DX009 (ip), vehicle: water) was 103 % of control and the T/C (dose: 400.0 mg/kg/injection, schedule: Q01DX009 (ip), vehicle: water) was 106 % of control.

In the case of C=C/C=C\N(CC)CC, the T/C (dose: 0.78 mg/kg/injection, schedule: Q01DX009 (ip), vehicle: water) is reported as 110 % of control, the T/C (dose: 1.56 mg/kg/injection, schedule: Q01DX009 (ip), vehicle: water) is reported as 109 % of control and 112 % of control and the T/C (dose: 3.12 mg/kg/injection, schedule: Q01DX009 (ip), vehicle: water) is reported as 107 % of control and 121 % of control. For the same compound, the T/C (dose: 6.25 mg/kg/injection, schedule: Q01DX009 (ip), vehicle: water) was 89 % of control and 100 % of control and 102 % of control, the T/C (dose: 12.5 mg/kg/injection, schedule: Q01DX009 (ip), vehicle: water) was 102 % of control and 123 % of control and the T/C [8] was 89 % of control and 116 % of control and 118 % of control.

With Cn1c([N+](=O)[O-])cnc1/C=N/N1CCN(/N=C/c2ncc([N+](=O)[O-])n2C)CC1 the T/C [1] was 101 % of control, the T/C [3] was 113 % of control and the T/C [2] was 94 % of control.

With COc1ccc(C(C#N)Nc2ccccc2)cc1 (centres undefined) the T/C [3] was 105 % of control, the T/C [7] was 109 % of control and the T/C [2] was 110 % of control. For the same compound, the T/C [4] was 100 % of control, the T/C [9] was 95 % of control and the T/C [5] was 109 % of control.

In the case of CCOC(=O)C(=O)C1CCCC1=O (centres undefined), the T/C [3] is reported as 92 % of control, the T/C [7] is reported as 95 % of control and the T/C [2] is reported as 89 % of control. The T/C [4] was 109 % of control, the T/C [9] was 92 % of control and the T/C [5] was 100 % of control.

With CNC(=N)c1ccc(NC(=N)c2ccc(NC(=N)c3ccc(NC(=O)Nc4ccc(C(=N)NC)cc4)cc3)cc2)cc1 the T/C (dose: 1.1 mg/kg/injection, schedule: Q04DX003 (ip), vehicle: saline) was 122 % of control, the T/C (dose: 2.4 mg/kg/injection, schedule: Q01DX009 (ip), vehicle: saline) was 170 % of control and the T/C (dose: 3.6 mg/kg/injection, schedule: Q01DX009 (ip), vehicle: saline) was 187 % of control. For the same compound, the T/C (dose: 5.0 mg/kg/injection, schedule: Q01DX009 (ip), vehicle: saline) was 154 % of control and 157 % of control, the T/C (dose: 5.3 mg/kg/injection, schedule: Q01DX009 (ip), vehicle: saline) was 195 % of control and the T/C (dose: 5.3 mg/kg/injection, schedule: Q04DX003 (ip), vehicle: saline) was 154 % of control. The T/C (dose: 6.25 mg/kg/injection, schedule: Q01DX009 (ip), vehicle: saline) was 161 % of control, the T/C (dose: 8.0 mg/kg/injection, schedule: Q01DX009 (ip), vehicle: saline) was 165 % of control and the T/C (dose: 12.0 mg/kg/injection, schedule: Q01DX009 (ip), vehicle: saline) was 188 % of control. For the same compound, the T/C (dose: 12.0 mg/kg/injection, schedule: Q04DX003 (ip), vehicle: saline) was 154 % of control, the T/C (dose: 12.5 mg/kg/injection, schedule: Q01DX009 (ip), vehicle: saline) was 230 % of control and the T/C (dose: 18.0 mg/kg/injection, schedule: Q01DX009 (ip), vehicle: saline) was 230 % of control. The T/C (dose: 18.0 mg/kg/injection, schedule: Q04DX003 (ip), vehicle: saline) was 187 % of control and the T/C [6] was 250 % of control.

In the case of CC(=O)OC1CCC2(C)C3=C(CCC2C1(C)C)C1(C)CCC(c2ccc(C(C)C)oc2=O)C1(C)CC3 (centres undefined), the T/C (dose: 70.0 mg/kg/injection, schedule: Q01DX010 (ip), vehicle: carboxymethylcellulose (CMC)) is reported as 90 % of control, the T/C (dose: 140.0 mg/kg/injection, schedule: Q01DX010 (ip), vehicle: carboxymethylcellulose (CMC)) is reported as 90 % of control and the T/C (dose: 280.0 mg/kg/injection, schedule: Q01DX010 (ip), vehicle: carboxymethylcellulose (CMC)) is reported as 90 % of control.

With C=C(C)C(=O)O[C@H]1C[C@@]23O[C@@H]2CCC(=C[C@H]2OC(=O)C(=C)[C@H]12)COC3O (some centres undefined) the T/C (dose: 9.37 mg/kg/injection, schedule: Q01DX009 (ip), vehicle: saline) was 108 % of control, the T/C (dose: 18.75 mg/kg/injection, schedule: Q01DX009 (ip), vehicle: saline) was 104 % of control and the T/C (dose: 18.75 mg/kg/injection, schedule: Q04DX003 (ip), vehicle: saline) was 113 % of control. The T/C (dose: 37.5 mg/kg/injection, schedule: Q04DX003 (ip), vehicle: saline) was 95 % of control.

For CC(O)C1CCCNC1 (centres undefined), the T/C (dose: 50.0 mg/kg/injection, schedule: Q01DX009 (ip), vehicle: saline) was 110 % of control, the T/C (dose: 100.0 mg/kg/injection, schedule: Q01DX009 (ip), vehicle: saline) was 100 % of control and the T/C (dose: 100.0 mg/kg/injection, schedule: Q04DX003 (ip), vehicle: saline) was 108 % of control. For the same compound, the T/C (dose: 200.0 mg/kg/injection, schedule: Q04DX003 (ip), vehicle: saline) was 104 % of control.

With CN1c2ccccc2C(=O)N2CCc3c([nH]c4ccccc34)C21 (centres undefined) the T/C (dose: 10.0 mg/kg/injection, schedule: Q01DX009 (ip), vehicle: saline with Tween-80) was 98 % of control and the T/C (dose: 20.0 mg/kg/injection, schedule: Q01DX009 (ip), vehicle: saline with Tween-80) was 118 % of control.

For Nc1ncncc1-c1cccc2ccccc12, the T/C [1] was 108 % of control, the T/C [3] was 99 % of control and the T/C [2] was 108 % of control.
